Source: article PMC12040169 (PLOS Biology, 2025)

test: in vitro; conditions: human, hela cells

With `COCCn1cc(C(=O)N2CCCC(CN(C)C)C2)c2ccccc21` (centres unmarked) [CBK281431] the viability at 28.5 h, 10 µM was 91.5%.

same assay, conditions: human, hela cells, % viability

First: OCCN1CCN(CC(O)COCc2ccccc2)CC1 (centres unmarked) [CBK278262C]
Second: CC(C)(C)C1CCC(OCC(O)CN2CCN(CCO)CC2)CC1 (centres unmarked) [CBK278263C]
The viability at 28.5 h, 10 µM of the first is higher: 90.6% for the first, 89.8% for the second.

Compared with `CC(=C\C(=O)O)/C(=C/c1ccncc1)C(=O)O` [CBK278265N], `COC(=O)C1(Cc2ccccc2-c2ccncc2)CCNC1` (centres unmarked) [CBK281435] is lower in viability at 28.5 h, 10 µM: 116% for the first, 85.2% for the second.

First: OCCNCCNCc1ccc(-c2ccccc2)cc1 [CBK278269C]
Second: Cc1ccccc1CNCCNCCO [CBK278293C]
The viability at 28.5 h, 10 µM of the first is higher: 115% for the first, 98% for the second.

Compared with `CN(C)CCCn1c(NCc2ccc3c(c2)OCO3)nc2ccccc21` [CBK278273C], `Cc1ccc(S(=O)(=O)NCCc2nc3ccccc3n2C)s1` [CBK281398] is lower in viability at 28.5 h, 10 µM: 94.4% for the first, 81.5% for the second.

Compared with `Cc1nnc(N/N=C/c2cn(Cc3c(F)cccc3Cl)c3ccccc23)n1N` [CBK278277C], `CCc1nnc(N/N=C/c2cc(Cl)c(OCc3ccccc3F)c(OC)c2)n1N` [CBK278282C] is lower in viability at 28.5 h, 10 µM: 86.8% for the first, 85.4% for the second.

Compared with `CCOC(=O)C1CCCN1Cc1ccccc1` (centres unmarked) [CBK278278G], `c1ccc(Cn2cc(-c3cncn3CCCN3CCCCC3)cn2)cc1` [CBK281491] is lower in viability at 28.5 h, 10 µM: 95% for the first, 91.4% for the second.

Compared with `CN(C)CCCNC(=O)c1ccc(/C=N/O)[n+](C)c1` [CBK278284I], `Cc1ccc2nc(C(=O)NCCSc3nccn3C)cn2c1` [CBK281397] is higher in viability at 28.5 h, 10 µM: 88.8% for the first, 93.4% for the second.

Compared with `NCCc1nc2ccccc2[nH]1` [CBK278287C], `O=C(O)CCCC(=O)Nc1ccccc1-c1nc2ccccc2[nH]c1=O` [CBK280451] is lower in viability at 28.5 h, 10 µM: 91.8% for the first, 85.9% for the second.

Compared with `c1ccc2c(c1)N1CCCN=C1N2CCN1CCOCC1` [CBK278300C], `COc1ccccc1CNCCCN1CCOCC1` [CBK278310C] is lower in viability at 28.5 h, 10 µM: 108% for the first, 96.2% for the second.

Going from `N=C(N)SCCCCSC(=N)N` [CBK278304B] to `O=S(=O)(O)CCCSCCCS(=O)(=O)O` [CBK278307N], the viability at 28.5 h, 10 µM falls from 102% to 95.4%.

First: O=C(O)C(O)C(O)C(O)CO (centres unmarked) [CBK278306G]
Second: Cc1oc2[nH]c(CN(C)CCOc3ccc(Cl)cc3)nc(=N)c2c1C(=O)O [CBK279463]
The viability at 28.5 h, 10 µM of the first is lower: 89.3% for the first, 102% for the second.

Compared with `CC1=NN(c2ccc(S(=O)(=O)O)cc2)C(=O)/C1=C/C=C/c1c(C)nn(-c2ccc(S(=O)(=O)O)cc2)c1O` [CBK278317K], `Cc1c(S(=O)(=O)Nc2ccc(-c3ccc(F)cc3)cc2)cnn1C` [CBK281418] is higher in viability at 28.5 h, 10 µM: 94.6% for the first, 114% for the second.

Going from `Cc1ccccc1OCC(O)CN1CCN(CCN2C(=O)c3cccc4cccc(c34)C2=O)CC1` (centres unmarked) [CBK278321C] to `Cc1cc(=O)n(CC(=O)NC(C)Cc2ccccn2)c2ccccc12` (centres unmarked) [CBK281420], the viability at 28.5 h, 10 µM rises from 68.9% to 90.3%.

Compared with `CC(C)(C)OC(=O)NCC1CCC(C(=O)O)CC1` (centres unmarked) [CBK278598], `Cc1ccc(C(C)(C)C(=O)N2CC(C(=O)N3CCN(C)CC3)C2)cc1` [CBK281371] is higher in viability at 28.5 h, 10 µM: 94.5% for the first, 99.4% for the second.

Going from `CCOc1ncccc1C(=O)NCc1ccc(NC(N)=O)cc1` [CBK279382] to `CC(C)Oc1cccc(CNC(=O)c2ccc(C(C)(C)C)[nH]c2=O)c1` [CBK281415], the viability at 28.5 h, 10 µM falls from 111% to 92.2%.

Going from `Cc1nccn1CCCC(=O)NCC1(c2ccccc2F)CCCC1` [CBK281370] to `Cc1ncncc1C(=O)NCC1(c2ccccc2F)CCCC1` [CBK281411], the viability at 28.5 h, 10 µM falls from 109% to 105%.

First: CC(=O)N1CC(C(=O)Nc2nc3c(C)cc(C)cc3s2)C1 [CBK281372]
Second: Cc1nc(C)c(CC(=O)Nc2cccc(CN3CCCC3)c2)s1 [CBK281426]
The viability at 28.5 h, 10 µM of the first is lower: 95.9% for the first, 105% for the second.

First: CC(NC(=O)c1ccccc1Cn1cccn1)c1ccccn1 (centres unmarked) [CBK281374]
Second: CC(Cc1ccccn1)NC(=O)c1cc(-c2ccccc2F)no1 (centres unmarked) [CBK281421]
The viability at 28.5 h, 10 µM of the first is lower: 86.3% for the first, 91.1% for the second.

Compared with `CNC(=O)C1(C)CCCN1C(=O)c1cc2cc(C)ccc2n1C` (centres unmarked) [CBK281375], `CCc1nc(CNC(=O)c2cc3cc(F)ccc3n2C)no1` [CBK281414] is higher in viability at 28.5 h, 10 µM: 86.1% for the first, 93.6% for the second.

Going from `CCn1cncc1C(=O)Nc1ccc(-n2ccnc2C(C)C)cc1` [CBK281379] to `CC(C)c1nccn1-c1ccc(NC(=O)Cn2ccnc2)cc1` [CBK281381], the viability at 28.5 h, 10 µM falls from 95.8% to 88.9%.

Compared with `O=C(CCCn1ccnc1)Nc1ccc(N2CCCCC2)c(F)c1` [CBK281385], `Cc1ccc(C(=O)Nc2ccc(N3CCCCC3)c(F)c2)c(=O)n1C` [CBK281390] is higher in viability at 28.5 h, 10 µM: 81.1% for the first, 89.5% for the second.

Going from `O=C(Nc1ccc(N2CCCCC2)c(F)c1)C1CC(=O)N(C2CC2)C1` (centres unmarked) [CBK281387] to `O=C(Nc1ccc(N2CCCC2)c(F)c1)C1CC(=O)N(C2CC2)C1` (centres unmarked) [CBK281461], the viability at 28.5 h, 10 µM falls from 108% to 100%.

Compared with `Cc1cc(C(=O)NCCn2nc(C)c(C)c2C)c2cccc(C)c2n1` [CBK281388], `Cc1cc(CNC(=O)Cn2nc(C)c(C)c2C)on1` [CBK281487] is lower in viability at 28.5 h, 10 µM: 110% for the first, 95.1% for the second.

Going from `Cc1cc(CNC(=O)c2cc3ccc(Cl)cc3[nH]2)[nH]n1` [CBK281391] to `Cc1cnn(CC(=O)NC(C)c2cc3cc(Cl)ccc3o2)c1` (centres unmarked) [CBK281447], the viability at 28.5 h, 10 µM rises from 87.8% to 90.2%.

Compared with `Cc1nn(C)c(C)c1C(C)NS(=O)(=O)Cc1cccc(F)c1` (centres unmarked) [CBK281396], `Cc1nn(C)cc1-c1cncn1Cc1cccc(OC(C)C)c1` [CBK281484] is lower in viability at 28.5 h, 10 µM: 107% for the first, 95.3% for the second.

First: CCn1cnc2cc(NC(=O)CC(C)n3nc(C)cc3C)ccc21 (centres unmarked) [CBK281401]
Second: Cc1cc(C)n(C(C)CC(=O)NC(C)c2nc3ccccc3s2)n1 (centres unmarked) [CBK281469]
The viability at 28.5 h, 10 µM of the first is higher: 94.8% for the first, 93.2% for the second.

Compared with `Cc1nc(-c2ccc(NC(=O)Cc3sc(C)nc3C)cc2)cs1` [CBK281404], `Cc1nc(C)c(CC(=O)N(C)CC2OCCc3ccccc32)s1` (centres unmarked) [CBK281478] is lower in viability at 28.5 h, 10 µM: 96% for the first, 90.9% for the second.

First: Cc1noc(C)c1CC(=O)Nc1cccc(CN2CCCCCC2)c1 [CBK281407]
Second: Cc1noc(C)c1CC(=O)NC(C)c1cc2cc(Cl)ccc2o1 (centres unmarked) [CBK281445]
The viability at 28.5 h, 10 µM of the first is higher: 105% for the first, 90.1% for the second.

Compared with `O=C(Cn1ccnc1)Nc1nc(-c2ccccc2F)cs1` [CBK281409], `O=C(Cn1ccnc1)Nc1ccccc1Oc1ccc(F)cc1` [CBK281455] is lower in viability at 28.5 h, 10 µM: 104% for the first, 90.1% for the second.

Going from `CC1(CNS(=O)(=O)Cc2cc(F)cc(F)c2)COC1` [CBK281413] to `Cc1cn(CC(=O)NCC2(c3cccc(F)c3)CCCC2)nn1` [CBK281436], the viability at 28.5 h, 10 µM falls from 91.3% to 89.7%.

Compared with `Cc1ccn2cc(C(=O)NCCSc3nccn3C)nc2c1` [CBK281417], `CCc1cc(C(=O)NC(c2ccc(F)cc2)c2nccn2C)n(C)n1` (centres unmarked) [CBK281434] is higher in viability at 28.5 h, 10 µM: 104% for the first, 108% for the second.

Going from `COc1ccc2c(C)c(C(=O)NC(C)Cc3ccccn3)oc2c1` (centres unmarked) [CBK281424] to `Cc1ccc(F)c(S(=O)(=O)NC(C)Cc2ccccn2)c1` (centres unmarked) [CBK281427], the viability at 28.5 h, 10 µM rises from 89.1% to 90.5%.

First: Cc1nn(CCNC(=O)C2CC3C=CC2C32CC2)c(C)c1Cl (centres unmarked) [CBK281429]
Second: Cc1nn(C)c(C)c1CN(C(=O)c1ccc(C)n(C)c1=O)C1CC1 [CBK281450]
The viability at 28.5 h, 10 µM of the first is lower: 90.8% for the first, 105% for the second.

Going from `Cn1nc(C(=O)Nc2ccccc2Oc2ccc(F)cc2)ccc1=O` [CBK281430] to `Cc1nccn1CCC(=O)Nc1ccccc1Oc1ccc(F)cc1` [CBK281473], the viability at 28.5 h, 10 µM rises from 91% to 91.9%.

Compared with `CC(NC(=O)CC(C)n1cccn1)c1cc2cc(Cl)ccc2o1` (centres unmarked) [CBK281432], `CC(CC(=O)NC(c1ccc(F)cc1)c1nccn1C)n1cccn1` (centres unmarked) [CBK281454] is higher in viability at 28.5 h, 10 µM: 92.6% for the first, 93.7% for the second.

First: CC(C(=O)NC(c1ccncc1)c1cccs1)n1ccnc1 (centres unmarked) [CBK281438]
Second: Cc1nccn1CCC(=O)NC(c1ccncc1)c1cccs1 (centres unmarked) [CBK281440]
The viability at 28.5 h, 10 µM of the first is higher: 90.9% for the first, 90.6% for the second.

First: Cn1ccnc1C(NC(=O)C1C2CCCCC21)c1ccc(F)cc1 (centres unmarked) [CBK281441]
Second: Cn1ccnc1C(NC(=O)[C@@H]1C[C@@H]2C=C[C@H]1C2)c1ccc(F)cc1 (some centres unmarked) [CBK281483]
The viability at 28.5 h, 10 µM of the first is higher: 98.7% for the first, 95.5% for the second.

Going from `Cc1nonc1CN(C)C(=O)c1ccc2c(c1)c(C)c(C)n2C` [CBK281442] to `Cc1cc(CNC(=O)CCn2ccc(C)n2)on1` [CBK281485], the viability at 28.5 h, 10 µM rises from 56.1% to 97.3%.

First: CCCn1nc(C)c(-c2cncn2CCn2nc(C)c(C)c2C)c1C [CBK281444]
Second: CCCn1nc(C)c(-c2cncn2CCc2c(C)nn(C)c2C)c1C [CBK281475]
The viability at 28.5 h, 10 µM of the first is lower: 83.5% for the first, 91.5% for the second.

Going from `Cn1c(=O)cc(Oc2ccc(F)cc2)c2ccccc21` [CBK281451] to `CC(C)(CO)CCCn1cncc1-c1cnn(-c2ccc(F)cc2)c1` [CBK281466], the viability at 28.5 h, 10 µM rises from 88.1% to 117%.

Compared with `OC(CN1CCC(Oc2cccc(F)c2)CC1)c1cccs1` (centres unmarked) [CBK281453], `CCc1cc(C(=O)NC(c2ccncc2)c2cccs2)n(C)n1` (centres unmarked) [CBK281482] is higher in viability at 28.5 h, 10 µM: 88.8% for the first, 109% for the second.

First: Cc1cccc(OCCn2cncc2-c2cn(C)nc2C)c1C [CBK281458]
Second: Cc1nn(C)cc1-c1cncn1CCCN1CCCCC1 [CBK281493]
The viability at 28.5 h, 10 µM of the first is higher: 112% for the first, 96% for the second.

Going from `CCC(CN1CCCC1)n1cncc1-c1cn(C)nc1C` (centres unmarked) [CBK281459] to `CCC(CN1CCCCC1)n1cncc1-c1cn(C)nc1C` (centres unmarked) [CBK281460], the viability at 28.5 h, 10 µM falls from 102% to 96.9%.

Compared with `O=C(Cc1ccc2c(c1)CCCO2)NCc1ccccc1-n1ccnc1` [CBK281463], `O=C(Cn1ccnc1)NC(c1ccc(Cl)cc1)c1cccnc1` (centres unmarked) [CBK281481] is higher in viability at 28.5 h, 10 µM: 86.6% for the first, 99.2% for the second.

First: c1ccc(-c2n[nH]cc2-c2cncn2CCCN2CCCCC2)cc1 [CBK281464]
Second: CC(NC(=O)c1n[nH]c2c1CCC2)c1cccnc1 (centres unmarked) [CBK281488]
The viability at 28.5 h, 10 µM of the first is lower: 90.4% for the first, 93.7% for the second.

Going from `CC(=O)N1CCc2cc(NC(=O)c3cc4cc(C)ccc4o3)ccc21` [CBK281470] to `CC(=O)N1CCc2cc(NC(=O)Cn3ccnc3C(C)C)ccc21` [CBK281471], the viability at 28.5 h, 10 µM rises from 86.2% to 90.1%.

First: O=C(CCn1cccn1)NCC1CCCOC1 (centres unmarked) [CBK281474]
Second: Cc1cc(CNC(=O)C(C)Cn2cccn2)on1 (centres unmarked) [CBK281486]
The viability at 28.5 h, 10 µM of the first is higher: 110% for the first, 90.9% for the second.
